Data published in ChEMBL document CHEMBL5321293, “Discovery of ERD-3111 as a Potent and Orally Efficacious Estrogen Receptor PROTAC Degrader with Strong Antitumor Activity” (J Med Chem, 2023).
pIC50: −log10 of the molar value. The source made the active and inactive calls. The calls are words filed in the database; no cut-off is given here.

Columns and labels:
[1] = Downregulation of ERalpha protein expression in tumor of CB17 SCID mouse xenografted with human MCF7 cells harboring ESR1 D538G mutant at 10 mg/kg, po qd for 3 days and measured after 6 hrs last dose by Western blot analysis relative to control; type: functional; conditions: time 3 day
[2] = molecular target: T1, Protein cereblon/Estrogen receptor (Homo sapiens, UniProt P03372+Q96SW2); test: Protac activity at human ERalpha in human MCF7 cells assessed as induction of ERalpha degradation by measuring maximum efficacy at 1 uM incubated for 12 hrs by ICW blot assay relative to control; type: cell-based
[3] = Clearance in ICR mouse at 1 mg/kg, iv and measured upto 24 hrs by LC-MS/MS analysis; type: ADME, organism-based; conditions: in vivo
[4] = Cmax in ICR mouse at 3 mg/kg, po and measured upto 24 hrs by LC-MS/MS analysis; type: ADME, organism-based; set-up: dose 3 mg/kg, time < 24 hrs, route po; conditions: in vivo
[5] = Oral bioavailability in ICR mouse at 3 mg/kg and measured upto 24 hrs by LC-MS/MS analysis; type: ADME, organism-based; conditions: in vivo
[6] = Volume of distribution at steady state in Beagle dog at 0.5 mg/kg, iv and measured upto 24 hrs by LC-MS/MS analysis; type: ADME, organism-based, Canis lupus familiaris; conditions: in vivo, read-out: Vdss
[7] = Half life in Beagle dog at 1 mg/kg, po and measured upto 24 hrs by LC-MS/MS analysis; type: ADME, organism-based, Canis lupus familiaris; conditions: in vivo
[8] = AUC in Beagle dog at 1 mg/kg, po and measured upto 24 hrs by LC-MS/MS analysis; type: ADME, organism-based, Canis lupus familiaris; set-up: dose 1 mg/kg, time < 24 hrs, route po; conditions: in vivo
[9] = molecular target: T1, Protein cereblon/Estrogen receptor; test: Protac activity at human ERalpha in ER positive human MCF7 cells assessed as reduction in ERalpha protein level at 0.1 to 30 nM by Western blot analysis; type: cell-based; conditions: dose 0.1-30 nM
Cytochrome P450 2C9 = Cytochrome P450 2C9 (Homo sapiens, UniProt P11712); test: Inhibition of CYP2C9 in human liver microsomes preincubated for 5 mins in presence substrate followed by NADPH addition and measured after 10 mins by LC-MS/MS analysis; type: ADME, Microsome
Cytochrome P450 2C19 = Cytochrome P450 2C19 (Homo sapiens, UniProt P33261); test: Inhibition of CYP2C19 in human liver microsomes preincubated for 5 mins in presence substrate followed by NADPH addition and measured after 10 mins by LC-MS/MS analysis; type: ADME, Microsome
Cytochrome P450 2D6 = Cytochrome P450 2D6 (Homo sapiens, UniProt P10635); test: Inhibition of CYP2D6 in human liver microsomes preincubated for 5 mins in presence substrate followed by NADPH addition and measured after 10 mins by LC-MS/MS analysis; type: ADME, Microsome
Cytochrome P450 3A4 = Cytochrome P450 3A4 (Homo sapiens, UniProt P08684); test: Inhibition of CYP3A4 in human liver microsomes using midazolam as substrate preincubated for 5 mins followed by NADPH addition and measured after 10 mins by LC-MS/MS analysis; type: ADME, Microsome
[10] = Downregulation of ERalpha protein expression in tumor of CB17 SCID mouse xenografted with human MCF7 cells harboring wild type ESR1 at 10 mg/kg, po qd for 3 days and measured after 6 hrs last dose by Western blot analysis relative to control; type: functional; conditions: time 3 day
[11] = Downregulation of ERalpha protein expression in tumor of CB17 SCID mouse xenografted with human MCF7 cells harboring wild type ESR1 at 10 mg/kg, po qd for 3 days and measured after 24 hrs last dose by Western blot analysis relative to control; type: functional; conditions: time 3 day
[12] = Downregulation of ERalpha protein expression in tumor of CB17 SCID mouse xenografted with human MCF7 cells harboring wild type ESR1 at 30 mg/kg, po qd for 3 days and measured after 6 hrs last dose by Western blot analysis relative to control; type: functional; conditions: time 3 day
[13] = Drug concentration in plasma of CB17 SCID mouse xenografted with human MCF7 cells harboring wild type ESR1 at 10 mg/kg, po qd for 3 days and measured after 6 hrs last dose by LC-MS/MS analysis; type: ADME, organism-based; conditions: time 3 day
[14] = Drug concentration in tumor of CB17 SCID mouse xenografted with human MCF7 cells harboring wild type ESR1 at 10 mg/kg, po qd for 3 days and measured after 24 hrs last dose by LC-MS/MS analysis; type: ADME, organism-based, Neoplasm; conditions: time 3 day, read-out: Ct
[15] = Drug concentration in plasma of CB17 SCID mouse xenografted with human MCF7 cells harboring wild type ESR1 at 30 mg/kg, po qd for 3 days and measured after 3 hrs last dose by LC-MS/MS analysis; type: ADME, organism-based; conditions: time 3 day
[16] = Drug concentration in tumor of CB17 SCID mouse xenografted with human MCF7 cells harboring wild type ESR1 at 30 mg/kg, po qd for 3 days and measured after 3 hrs last dose by LC-MS/MS analysis; type: ADME, organism-based, Neoplasm; conditions: time 3 day, read-out: Ct
[17] = Downregulation of ERalpha protein expression in tumor of CB17 SCID mouse xenografted with human MCF7 cells harboring ESR1 Y537S mutant at 10 mg/kg, po qd for 3 days and measured after 6 hrs last dose by Western blot analysis relative to control; type: functional; conditions: time 3 day
[18] = Drug concentration in tumor of CB17 SCID mouse xenografted with human MCF7 cells harboring ESR1 Y537S mutant at 30 mg/kg, po qd for 3 days and measured after 6 hrs last dose by LC-MS/MS analysis; type: ADME, organism-based, Neoplasm; conditions: time 3 day, read-out: Ct
[19] = Drug concentration in tumor of CB17 SCID mouse xenografted with human MCF7 cells harboring ESR1 D538G mutant at 10 mg/kg, po qd for 3 days and measured after 6 hrs last dose by LC-MS/MS analysis; type: ADME, organism-based, Neoplasm; conditions: time 3 day, read-out: Ct
MCF7 [20] = test: Antitumor activity against human MCF7 cells harboring wild type ESR1 xenografted in CB17 SCID mouse assessed as tumor growth inhibition at 10 mg/kg, po qd for 5 weeks; type: functional; conditions: MCF7, 840 h, read-out: TGI
MCF7 [21] = test: Antitumor activity against human MCF7 cells harboring wild type ESR1 xenografted in CB17 SCID mouse assessed as tumor growth inhibition at 30 mg/kg, po qd for 5 weeks; type: functional; conditions: MCF7, 840 h, read-out: TGI
MCF7 [22] = test: Antitumor activity against human MCF7 cells harboring wild type ESR1 xenografted in CB17 SCID mouse assessed as tumor growth inhibition at 10 mg/kg, po qd for 5 weeks and measured 3 weeks post last dose; type: functional; conditions: MCF7, 840 h, read-out: TGI
MCF7 [23] = test: Antitumor activity against human MCF7 cells harboring wild type ESR1 xenografted in CB17 SCID mouse assessed as tumor growth inhibition at 30 mg/kg, po qd for 5 weeks and measured 3 weeks post last dose; type: functional; conditions: MCF7, 840 h, read-out: TGI
MCF7 [24] = test: Antitumor activity against human MCF7 cells harboring ESR1 Y537S mutant xenografted in CB17 SCID mouse assessed as tumor growth inhibition at 30 mg/kg, po qd for 4 weeks; type: functional; conditions: MCF7, 672 h, read-out: TGI
MCF7 [25] = test: Antitumor activity against human MCF7 cells harboring ESR1 Y537S mutant xenografted in CB17 SCID mouse assessed as tumor growth inhibition at 30 mg/kg, po qd for 4 weeks and measured 30 days post last dose; type: functional; conditions: MCF7, 672 h, read-out: TGI
MCF7 [26] = test: Antitumor activity against human MCF7 cells harboring ESR1 D538G mutant xenografted in CB17 SCID mouse assessed as tumor growth inhibition at 30 mg/kg, po qd for 4 weeks and measured 1 week post last dose; type: functional, organism-based
[27] = Toxicity in CB17 SCID mouse xenografted with human MCF7 cells harboring ESR1 D538G mutant assessed as body weight change at 10 mg/kg,po qd for 4 weeks; type: organism-based; conditions: in vivo, 672 h
in vivo = conditions: Sprague-Dawley, rat, po, 3 mg/kg

T1 sequence (P03372 whole entry, looked up): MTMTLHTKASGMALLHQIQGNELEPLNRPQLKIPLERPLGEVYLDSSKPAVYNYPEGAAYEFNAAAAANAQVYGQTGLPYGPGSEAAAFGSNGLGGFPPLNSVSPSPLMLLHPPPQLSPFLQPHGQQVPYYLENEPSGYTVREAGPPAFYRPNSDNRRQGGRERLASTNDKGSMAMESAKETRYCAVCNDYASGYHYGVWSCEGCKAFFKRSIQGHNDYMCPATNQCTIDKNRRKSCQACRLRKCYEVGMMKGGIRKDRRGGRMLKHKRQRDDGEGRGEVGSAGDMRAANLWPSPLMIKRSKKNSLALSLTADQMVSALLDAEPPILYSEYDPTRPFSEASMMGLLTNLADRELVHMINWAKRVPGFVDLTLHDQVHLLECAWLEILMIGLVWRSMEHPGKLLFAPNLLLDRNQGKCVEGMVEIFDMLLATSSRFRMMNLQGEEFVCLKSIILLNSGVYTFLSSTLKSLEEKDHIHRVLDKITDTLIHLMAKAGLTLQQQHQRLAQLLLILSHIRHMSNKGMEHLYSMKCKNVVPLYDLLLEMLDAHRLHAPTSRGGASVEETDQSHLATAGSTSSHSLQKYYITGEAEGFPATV
T1 sequence (Q96SW2 whole entry, looked up): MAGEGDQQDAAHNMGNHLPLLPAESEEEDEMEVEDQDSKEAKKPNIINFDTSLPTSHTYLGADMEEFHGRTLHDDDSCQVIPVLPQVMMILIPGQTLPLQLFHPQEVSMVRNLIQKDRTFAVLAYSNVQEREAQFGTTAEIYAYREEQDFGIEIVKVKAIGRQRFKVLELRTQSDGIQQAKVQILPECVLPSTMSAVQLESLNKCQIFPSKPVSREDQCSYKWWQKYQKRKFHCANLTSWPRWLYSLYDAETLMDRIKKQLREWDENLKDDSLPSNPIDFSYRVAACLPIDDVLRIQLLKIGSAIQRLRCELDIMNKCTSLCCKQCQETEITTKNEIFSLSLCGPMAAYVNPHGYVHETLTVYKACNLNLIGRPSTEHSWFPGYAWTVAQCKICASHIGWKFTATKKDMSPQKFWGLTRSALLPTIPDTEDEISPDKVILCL
Cytochrome P450 2D6, sequence (P10635 whole entry): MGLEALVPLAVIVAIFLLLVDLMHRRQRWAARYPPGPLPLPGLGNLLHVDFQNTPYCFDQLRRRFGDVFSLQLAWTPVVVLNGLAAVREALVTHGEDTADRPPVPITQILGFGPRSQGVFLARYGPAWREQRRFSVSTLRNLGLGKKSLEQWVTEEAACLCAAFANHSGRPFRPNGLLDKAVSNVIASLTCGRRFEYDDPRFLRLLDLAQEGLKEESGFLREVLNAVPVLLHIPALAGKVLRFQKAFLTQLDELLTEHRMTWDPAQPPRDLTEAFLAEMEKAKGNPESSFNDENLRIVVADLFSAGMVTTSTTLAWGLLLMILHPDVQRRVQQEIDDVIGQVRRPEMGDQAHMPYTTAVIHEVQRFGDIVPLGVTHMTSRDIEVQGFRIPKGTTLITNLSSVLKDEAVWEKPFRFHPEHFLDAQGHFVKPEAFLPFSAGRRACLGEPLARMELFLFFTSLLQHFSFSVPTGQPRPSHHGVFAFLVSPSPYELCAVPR
Cytochrome P450 2C9, sequence (P11712 whole entry): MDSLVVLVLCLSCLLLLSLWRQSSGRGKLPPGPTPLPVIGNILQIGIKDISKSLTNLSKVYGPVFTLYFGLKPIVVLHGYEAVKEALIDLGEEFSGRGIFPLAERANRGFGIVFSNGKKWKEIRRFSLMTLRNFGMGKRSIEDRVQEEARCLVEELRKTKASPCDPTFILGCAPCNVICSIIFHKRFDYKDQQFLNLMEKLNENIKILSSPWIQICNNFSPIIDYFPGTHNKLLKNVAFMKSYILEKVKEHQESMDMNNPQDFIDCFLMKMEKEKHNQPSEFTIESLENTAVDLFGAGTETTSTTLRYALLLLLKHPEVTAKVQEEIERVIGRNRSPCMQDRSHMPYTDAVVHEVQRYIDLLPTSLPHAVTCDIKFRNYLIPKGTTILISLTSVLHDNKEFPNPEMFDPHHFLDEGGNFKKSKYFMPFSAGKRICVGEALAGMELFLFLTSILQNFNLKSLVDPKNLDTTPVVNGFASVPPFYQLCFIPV
Cytochrome P450 2C19, sequence (P33261 whole entry): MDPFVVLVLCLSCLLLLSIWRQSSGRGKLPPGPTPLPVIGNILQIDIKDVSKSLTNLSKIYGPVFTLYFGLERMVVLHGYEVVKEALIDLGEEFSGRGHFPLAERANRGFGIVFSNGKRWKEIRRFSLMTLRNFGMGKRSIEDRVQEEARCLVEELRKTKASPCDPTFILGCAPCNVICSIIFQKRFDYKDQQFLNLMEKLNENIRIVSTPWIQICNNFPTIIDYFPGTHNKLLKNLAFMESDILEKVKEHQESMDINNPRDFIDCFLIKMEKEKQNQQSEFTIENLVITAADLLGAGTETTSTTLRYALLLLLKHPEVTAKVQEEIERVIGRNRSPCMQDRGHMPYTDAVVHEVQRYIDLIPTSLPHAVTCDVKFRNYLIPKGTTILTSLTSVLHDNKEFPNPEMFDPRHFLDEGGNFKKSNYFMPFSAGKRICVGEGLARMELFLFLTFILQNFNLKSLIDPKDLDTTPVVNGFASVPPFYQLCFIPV
Cytochrome P450 3A4, sequence (P08684 whole entry): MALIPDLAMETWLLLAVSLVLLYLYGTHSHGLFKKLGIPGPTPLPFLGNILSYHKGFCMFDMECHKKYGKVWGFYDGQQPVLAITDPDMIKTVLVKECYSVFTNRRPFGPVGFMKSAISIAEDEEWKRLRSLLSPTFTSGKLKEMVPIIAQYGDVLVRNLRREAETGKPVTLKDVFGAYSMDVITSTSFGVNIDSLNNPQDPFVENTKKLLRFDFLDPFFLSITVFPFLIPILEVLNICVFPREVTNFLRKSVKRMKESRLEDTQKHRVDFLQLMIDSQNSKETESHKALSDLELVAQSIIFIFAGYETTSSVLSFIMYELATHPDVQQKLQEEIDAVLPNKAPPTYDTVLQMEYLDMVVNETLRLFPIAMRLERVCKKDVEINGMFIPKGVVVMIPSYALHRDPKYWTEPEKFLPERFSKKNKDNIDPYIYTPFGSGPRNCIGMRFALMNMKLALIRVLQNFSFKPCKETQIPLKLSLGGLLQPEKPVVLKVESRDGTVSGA

`C[C@@H]1Cc2c(ccc3[nH]ncc23)[C@@H](c2c(F)cc(N3CCC4(CCN(C(=O)CN5Cc6cc7c(cc6C5)C(=O)N(C5CCC(=O)NC5=O)C7=O)CC4)CC3)cc2F)N1CC(F)F` (some centres not stated) showed an Activity [1] of 68%, an Emax [2] of 91% and a clearance [3] of 5.7 mL/min/kg. It also gave a Cmax [4] of 260 ng/mL, a bioavailability [5] of 42% and a Vd [6] of 5.2 L/kg. For the same compound, the half-life [7] was 7.9 h, the AUC at 24 h [8] was 937 ng·h/mL and the Activity [9] was “Dose-Dependent Effect”. The pIC50 (Cytochrome P450 2C9) was under 5.00, the pIC50 (Cytochrome P450 2C19) was under 5.00 and the pIC50 (Cytochrome P450 2D6) was under 5.00. For the same compound, the pIC50 (Cytochrome P450 3A4) was under 5.00, the Activity [10] was 66% and the Activity [11] was 70%. It also gave an Activity [12] of 66%, a concentration at 72 h [13] of 433 ng/mL and a concentration at 72 h [14] of 162 ng/mL. The concentration at 72 h [15] was 1980 ng/mL, the concentration at 72 h [16] was 1410 ng/mL and the Activity [17] was 70%. The concentration at 72 h [18] was 3740 ng/mL, the concentration at 72 h [19] was 1050 ng/mL and the inhibition in vivo at 10 mg/kg (MCF7 [20]) was 24%. For the same compound, the inhibition in vivo at 30 mg/kg (MCF7 [21]) was 42%, the inhibition in vivo at 10 mg/kg (MCF7 [22]) was 13% and the inhibition in vivo at 30 mg/kg (MCF7 [23]) was 42%. The inhibition in vivo at 30 mg/kg (MCF7 [24]) was 86%, the inhibition in vivo at 30 mg/kg (MCF7 [25]) was 101% and the Activity (MCF7 [26]) was “Active”. For the same compound, the Activity [27] was “Non-Toxic” and the bioavailability at 24 h (in vivo) was 20%.
